Experiment [1] has as its system formalin-induced hind paw licking. As to the kind of experiment: Formalin-induced paw licking in mice. The class given is in vivo. To be noted: intraperitoneally 30 minutes before formalin, Phase II (20 to 30 minute), FIG. 5. The procedure:
Formalin Induced Hyperalgesia and Inflammation: In an experimental model of sustained inflammatory nociception associated with long term intracellular changes of nociceptive processing at the level of the spinal cord, mice or rats are subjected to a subplantar injection of formalin into a paw (Chapman et al., Brain Res. 697:258-261, 1995; Meller and Gebhart, Pain 52:127-136, 1993). Two distinct phases of spontaneous nociceptive behaviour exist: The first phase (Phase I) last about 5 minutes, followed by a second phase (Phase II), lasting approximately 40 minutes characterized by persistent shaking or licking of the injected paw (Fu et al., Neuroscience 101(4):1127-1135, 2000). Longer periods after injection of formalin results in the development of allodynia and hyperalgesia (1-4 weeks). […] Test compounds, including compound 12 and 7-NI, were dissolved in 1% DMSO/2% Tween 80/0.9% NaCl. Male or female ICR-derived mice weighing 23±2 g were housed in APEC® cages and maintained in a controlled temperature (22° C.-24° C.) and humidity (60%-80%) environment with 12 hr light-dark cycles for 1 week prior to use. Free access to standard lab chow and tap water was granted. […] The reduction of formalin-induced hind paw licking time was recorded during the following 20 to 30 minute period (Phase II).

The test system of a further experiment is CA1 hippocampal slices. The experiment can be described thus: Evoked field potentials in CA1 hippocampal slices after OGD. The class given is cell-based, rat. The note with it: slices after 10 min OGD; compound 12 50 μM, 7-NI 100 μM; FIG. 16. As for the experimental part: Slice Preparation: Male Wistar rats, 180-200 gm, were anesthetized with halothane and decapitated. Their brains were removed and placed in artificial cerebral spinal fluid (ACSF) at 0.5° C. within 60 s of decapitation. […] Brains were hemisected and hippocampi were dissected out and sectioned into […] thick slices using a McIlwain Tissue chopper (Mickle Laboratory Engineering Co. Gomshall, GB). Sectioning was initiated approximately 1 mm from the rostral end of the hippocampus and approximately 12 slices were harvested from each hippocampus. Slices were distributed into groups in a rotational manner so that each group contained slices from all sectioned regions of the hippocampus. The hippocampal slices were placed on nylon mesh platforms in interface-type incubation chambers (6-8 slices per platform; 1 platform per chamber) for 90 min at 35° C. The ACSF in these chambers, and the atmosphere above it, was continuously gassed with 95% O2/5% CO2. […]
(a) Preservation of Evoked Field Potentials: The efficacy of synaptic transmission in these slices was evaluated using electrophysiological techniques. […] Evoked potentials (EP) were recorded in the CA1 from the stratum pyrimidale using glass micropipettes (2-5 megohms) filled with 150 mM NaCl. Population spike (PS) amplitude was measured from the peak downward deflection to the midway point between the 2 positive peaks. […]

A further experiment deals with Hippocampal slices. As to the kind of experiment: Mitochondrial metabolic activity in hippocampal slices after OGD, TTC staining. The experiment is classed as cell-based, rat. The note with it: 100 μM; 10 min OGD; control live normalized to 100%; n=5. The procedure:
Brain injury can be measured in brain sections by incubating sections of fresh brain in 2,3,5-triphenyltetrazolium chloride (TTC). TTC, which is colorless, is reduced by mitochondrial succinate dehydrogenase in living tissue to a red formazan product. Combinations of photography or scanning and image analysis are then used to measure the area of normal (red) and damaged (uncolored) tissue at the surface of each section face and estimate the extent of damage. The TTC staining technique has been further refined by members of the Experimental Stroke Group at IBS (Study Host: University of Ottawa, Canada) using a solvent to extract the colored formazan product from tissue sections and measured it spectrophotometrically, thus obtaining a simple, objective measure of damage (Preston and Webster, J. Neurosci. Meth. 94(2):187-92, 1999). […]
(b) Preservation of Mitochondrial Metabolic Activity by compound 12 using TTC staining: Hippocampal slices exposed to 10 min OGD (control dead) retained 25±5% (n=5 groups of 4-5 slices) of the absorbance of slices not subjected to an insult (control live—normalized to 100%), whereas slices preincubated in 0.3 mM calcium 30 min prior to and during OGD retained 107±27% (n=5) of their absorbance (control protection). […]

The target in a further experiment is murine macrophage iNOS (Mus musculus (Mouse), UniProt P29477). As to the kind of experiment: Murine iNOS hemoglobin capture assay. The class given is biochemical. An excerpt:
(§1) The NOS isoforms used in this example were recombinant enzymes expressed in E. coli. Rat nNOS was expressed and purified as described previously (Roman et al., Proc. Natl. Acad. Sci. USA 92:8428-8432, 1995). The bovine eNOS isoform was isolated as reported (Martasek et al., Biochem. Biophys. Res. Commun. 219:259-365, 1996) and murine macrophage iNOS was expressed and isolated according to the procedure of Hevel et al. (J. Biol. Chem. 266:22789-22791, 1991). IC50 values and percent inhibition of NOS by the compounds of the invention were determined under initial velocity measurement conditions with the hemoglobin capture assay as previously described (Hevel and Marletta, Methods Enzymol. 133:250-258, 1994). In this assay, nitric oxide reacts with oxyhemoglobin to yield methemoglobin, which was detected at 401 nm (e=19,700 M^−1 cm^−1) on a Perkin-Elmer Lamda 10 UV/vis spectrophotometer. The assays were performed using varying test compound concentrations. Assay mixtures for nNOS or eNOS contained […], 1.6 mM CaCl2, 11.6 mg/mL calmodulin, […], 6.5 mM BH4 and […] in 100 mM Hepes (pH 7.5). Assay mixtures for iNOS contained 10 mM of L-arginine, […], 6.5 mM BH4 and […] in 100 mM Hepes (pH 7.5). All assays were conducted in a final volume of 600 μL and were initiated with enzyme.

A further experiment has as its target bovine eNOS (Bos taurus (Bovine), UniProt P29473). As to the kind of experiment: Bovine eNOS hemoglobin capture assay. The class given is biochemical.
Description: as §1

Experiment [2] deals with human neuronal constitutive NOS (nNOS) (Homo sapiens (Human), UniProt P29475). As to the kind of experiment: Human nNOS enzyme assay, radiometric [3H]L-arginine to [3H]L-citrulline.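 Also: recombinant human nNOS expressed in baculovirus-infected Sf9 cells, enzyme activity measured radiometrically as turnover of [3H]L-arginine into [3H]L-citrulline.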
Description: (§2) In a radiometric method, NO synthase activity was determined by measuring the conversion of [^3H]L-arginine to [^3H]L-citrulline.
(§3) The total volume of the reaction mixture was 150 μL in every well. […] The reaction was stopped by adding 20 μL of ice-cold buffer containing 100 mM HEPES, 3 mM EGTA, 3 mM EDTA, pH=5.5. [^3H]L-citrulline was separated by DOWEX (ion-exchange resin DOWEX 50 W X 8-400, SIGMA) and the DOWEX was removed by spinning at 12,000 g for 10 min in the centrifuge. […] All assays were performed at least in duplicate. Standard deviations were 10% or less.
The test system of experiment [3] is rat cortical neuronal cultures. The experiment can be described thus: Neuroprotection of rat cortical cells against NMDA challenge. The note with it: 60-minute pre-incubation; 30 minutes 25 μM NMDA; propidium iodide after 24 hrs; FIG. 1. The experiment is classed as cell-based. As for the experimental part: According to a previously reported procedure (Tremblay et al., J Neurosci. 20(19):7183-92, 2000), test compounds were added for a 60-minute pre-incubation period to rat cortical neuronal cultures, which were then exposed for 30 minutes to 25 μM NMDA in buffer. After 24 hrs cultures were treated with propidium iodide and the % cell death determined and compared to control cells.

For a further experiment, the target named is Rat nNOS (Rattus norvegicus (Rat), UniProt P29476). As to the kind of experiment: Rat nNOS hemoglobin capture assay. The experiment is classed as biochemical. To be noted: Table 2a.
Description: as §1

The target in experiment [4] is human endothelial constitutive NOS (eNOS) (Homo sapiens (Human), UniProt P29474). As to the kind of experiment: Human eNOS enzyme assay, radiometric.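 Also: recombinant human eNOS expressed in baculovirus-infected Sf9 cells, activity read as [3H]L-arginine turned into [3H]L-citrulline, the product isolated on ion-exchange resin.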
Description: as §2, §3
Experiment [5] has as its target human inducible NOS (iNOS) (Homo sapiens (Human), UniProt P35228). The experiment can be described thus: Human iNOS enzyme assay, radiometric. The class given is biochemical. An excerpt:
Standard deviations were 10% or less.

The subject of a further experiment is cardiogenic shock. The note with it: randomized trial of 30 patients; reduced from 67%; cited from earlier work.
The test system of the next experiment is hindpaw allodynia. The experiment can be described thus: Experimental migraine model, inflammatory soup on dura, hindpaw allodynia. The note with it: 10 mg/kg i.v 10 minutes prior to IS.
Another experiment concerns persistent shock. The note with it: up to 30 days; 11 patients with persistent shock; cited from earlier work.
In the next experiment the test system is migraine. To be noted: single i.v. administration; human migraine; cited from earlier work.

Molecules are shown by their SMILES. pIC50: −log10 of the molar value. Entries after “also recorded” stand apart in the source; their conditions may differ. Where two headings read alike, the source gives them in different places.

For the molecule `O=[N+]([O-])c1cccc2cn[nH]c12` [Compound 7-NI, 7-nitroindazole], in experiment [1], the “formalin-induced hind paw licking” value was “reduction in the frequency of paw licking”. In addition, the “preservation of population spike” value in the experiment with CA1 hippocampal slices was “did not preserve population spike; also recorded: fiber volleys, but no PSs”. Besides, the “absorbance retained (TTC staining)” value in the experiment with Hippocampal slices amounted to 81±18%.
As to `CN(C)CCc1c[nH]c2ccc(NC(=N)c3cccs3)cc12` [Compound 18], the pIC50 was 4.36 on murine macrophage iNOS; 3.61 against bovine eNOS; 5.59 in experiment [2] (read-out: Human nNOS, Table 2b); 5.59 in experiment [2] (read-out: nNOSh, Table I, human NOS, dihydrochloride or monohydrochloride salts); 5.48 against Rat nNOS; 4.59 in [4] (read-out: Human eNOS, Table 2b). For the same molecule, the pIC50 is 4.59 in experiment [4] (read-out: eNOSh, Table I, human NOS, dihydrochloride or monohydrochloride salts); 4.92 in [5] (Table 2b, read-out: Human iNOS); 4.92 in experiment [5] (Table I, human NOS, dihydrochloride or monohydrochloride salts, read-out: iNOSh). Besides, in experiment [2] (Table I, ratio eNOSh/nNOSh), the e/n is given as 10. Moreover, the “protection of neuronal cells from death upon NMDA challenge” value in [3] is given as “protected neuronal cells from death”.
For `COC(=O)[C@@H](N)CCCNC(=N)N[N+](=O)[O-]` [L-NAME], the patient mortality with cardiogenic shock was 27%.
With `CN=C(N)NCCC[C@H](N)C(=O)O.Cl` [L-NMMA, L-N^G methylarginine hydrochloride], the “development of hindpaw allodynia” value with hindpaw allodynia is given as “prevents the development of hindpaw allodynia”. In addition, the survival rate in the experiment with persistent shock is 72%. Moreover, the response rate in the experiment on migraine is 67%.

Values taken from patent US8586620B2, “Substituted indole compounds having NOS inhibitory activity” (NeurAxon, Inc., priority 2005, dated 2013).
